From patent publication US11713338B2, “Cyclic peptides multimers targeting α-4-β-7 integrin” (priority 2016, dated 2023)

Molecular target: T1, recombinant integrin α4β7 (Homo sapiens, UniProt P13612+P26010, DEL724-798)
T1 construct: purchased R&D Systems 5397-A3-050
T1 sequence (P13612 34-970 limits assumed): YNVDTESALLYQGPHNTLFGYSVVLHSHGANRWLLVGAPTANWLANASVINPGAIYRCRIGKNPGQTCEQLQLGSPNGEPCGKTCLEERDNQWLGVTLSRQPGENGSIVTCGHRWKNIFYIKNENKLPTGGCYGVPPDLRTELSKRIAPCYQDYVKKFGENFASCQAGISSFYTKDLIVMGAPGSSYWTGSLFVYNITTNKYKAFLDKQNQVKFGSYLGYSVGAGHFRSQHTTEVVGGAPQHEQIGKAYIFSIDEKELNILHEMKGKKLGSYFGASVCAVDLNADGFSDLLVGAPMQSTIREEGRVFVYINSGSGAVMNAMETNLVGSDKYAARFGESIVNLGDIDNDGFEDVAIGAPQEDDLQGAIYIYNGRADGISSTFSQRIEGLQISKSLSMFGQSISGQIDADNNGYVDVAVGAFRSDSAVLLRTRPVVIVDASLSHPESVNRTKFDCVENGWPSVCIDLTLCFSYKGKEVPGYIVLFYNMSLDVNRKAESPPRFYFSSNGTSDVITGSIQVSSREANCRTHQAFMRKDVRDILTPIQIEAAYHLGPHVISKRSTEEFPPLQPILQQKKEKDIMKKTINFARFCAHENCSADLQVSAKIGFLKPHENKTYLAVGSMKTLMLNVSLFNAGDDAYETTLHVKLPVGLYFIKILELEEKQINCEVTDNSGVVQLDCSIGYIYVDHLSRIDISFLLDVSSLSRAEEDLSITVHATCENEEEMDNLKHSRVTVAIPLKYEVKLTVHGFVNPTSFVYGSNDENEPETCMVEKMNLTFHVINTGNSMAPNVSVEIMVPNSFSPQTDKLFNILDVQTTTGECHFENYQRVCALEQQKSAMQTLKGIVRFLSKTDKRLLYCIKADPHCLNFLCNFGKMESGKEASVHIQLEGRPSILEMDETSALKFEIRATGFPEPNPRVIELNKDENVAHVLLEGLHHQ
T1 sequence (P26010 20-723 limits assumed): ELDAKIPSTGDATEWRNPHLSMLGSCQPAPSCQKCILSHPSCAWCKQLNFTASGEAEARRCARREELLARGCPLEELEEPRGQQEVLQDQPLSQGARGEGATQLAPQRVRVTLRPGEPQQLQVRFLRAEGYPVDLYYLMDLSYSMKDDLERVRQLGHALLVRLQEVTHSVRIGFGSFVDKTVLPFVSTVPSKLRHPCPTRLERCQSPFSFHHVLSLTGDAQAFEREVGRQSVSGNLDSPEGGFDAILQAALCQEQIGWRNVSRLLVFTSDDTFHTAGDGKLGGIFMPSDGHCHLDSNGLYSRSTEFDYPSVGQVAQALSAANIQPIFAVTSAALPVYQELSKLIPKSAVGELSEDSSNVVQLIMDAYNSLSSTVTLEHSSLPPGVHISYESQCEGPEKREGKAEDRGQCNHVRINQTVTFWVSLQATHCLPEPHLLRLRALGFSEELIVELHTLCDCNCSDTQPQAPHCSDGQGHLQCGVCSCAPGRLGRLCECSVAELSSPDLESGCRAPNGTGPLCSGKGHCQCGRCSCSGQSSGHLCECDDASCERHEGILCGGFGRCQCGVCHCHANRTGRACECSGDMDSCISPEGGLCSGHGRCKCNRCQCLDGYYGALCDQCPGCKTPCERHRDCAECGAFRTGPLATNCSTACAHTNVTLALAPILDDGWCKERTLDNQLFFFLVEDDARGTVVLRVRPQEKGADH
Test: Integrin α4β7—MAdCAM-1 ELISA competition assay
Type: binding
Conditions: for IC50: read-out: ELISA a4b7 Assay IC50; for ELISA Assay Ratio b1/b7: ratio of a4b1 to a4b7 ELISA IC50
Method: Integrin α4β7—MAdCAM-1 ELISA Competition Assay
The plate was incubated at 40C overnight. […] The plate was then incubated for 1 hour at room temperature. The plate was washed three times with wash buffer (50 mM Tris, 100 mM NaCl, 1 mM MnCl2, 0.05% Tween). To each well, 50 μl of compound diluted in assay buffer was added by transfer from a compound serial dilution plate. […] The plate was incubated at room temperature with shaking (300 rpm) for 2 hours to reach binding equilibrium. […] The plate was incubated at room temperature for 1 hour under agitation.

CC(C)C[C@@H]1NC(=O)C[C@H](CCCCN)NC(=O)[C@H](Cc2ccccc2-c2cc(C(F)(F)F)ccc2C(F)(F)F)NC(=O)[C@@H]2CCCN2[C@H](C(=O)NC(C)(C)C)[C@H](C)NC(=O)[C@H]([C@@H](C)O)NC(=O)[C@H](CC(=O)O)NC1=O [Compound 287]
IC50: 84 nM

CC(C)C[C@@H]1NC(=O)C[C@H](CCCCN)NC(=O)[C@H](Cc2ccc(O)cc2)NC(=O)[C@@H]2CCCN2[C@H](C(=O)NC(C)(C)C)[C@H](C)NC(=O)[C@H]([C@@H](C)OCc2ccccc2)NC(=O)[C@H](CC(=O)O)NC1=O [Compound 200]
ELISA Assay Ratio b1/b7: 2.6 | IC50: 134 nM

CC(C)C[C@@H]1NC(=O)[C@H]2CCCN2C(=O)[C@H](Cc2cc(F)c(F)c(F)c2)NC(=O)[C@@H]2CCCN2[C@H](C(=O)NC(C)(C)C)[C@H](C)NC(=O)[C@H]([C@@H](C)O)NC(=O)[C@H](CC(=O)O)NC1=O [Compound 128]
ELISA Assay Ratio b1/b7: 11.4 | IC50: 26 nM

CCC[C@@H]1NC(=O)[C@@H]2CCCN2[C@H](C(=O)NC(C)(C)C)[C@H](C)NC(=O)[C@H]([C@@H](C)O)NC(=O)[C@H](CC(=O)O)NC(=O)[C@H](CC(C)C)NC1=O [Compound 71]
ELISA Assay Ratio b1/b7: 4.4 | IC50: 184 nM

CC(C)C[C@@H]1NC(=O)[C@@H]2c3ccccc3CN2C(=O)[C@@H]2CCCN2[C@H](C(=O)NC(C)(C)C)[C@H](C)NC(=O)[C@H]([C@@H](C)O)NC(=O)[C@H](CC(=O)O)NC1=O [Compound 99]
IC50: 57 nM

CC(C)C[C@@H]1NC(=O)[C@@H]2C[C@@H](O)CN2C(=O)[C@@H]2CCCN2[C@H](C(=O)NC(C)(C)C)[C@H](C)NC(=O)[C@H]([C@@H](C)O)NC(=O)[C@H](CC(=O)O)NC1=O [Compound 63]
IC50: 107 nM

CC(C)C[C@@H]1NC(=O)C[C@H]2CCCN2C(=O)[C@H](Cc2ccc(CN)cc2)NC(=O)[C@@H]2CCCN2[C@H](C(=O)NC(C)(C)C)[C@H](C)NC(=O)[C@H]([C@@H](C)O)NC(=O)[C@H](CC(=O)O)NC1=O [Compound 230]
IC50: 120 nM

CC[C@H](C)[C@@H]1NC(=O)[C@H](CC(=O)O)NC(=O)[C@H](CC(C)C)NC(=O)C[C@@H](CCCCN)NC(=O)[C@H](Cc2ccccc2)NC(=O)[C@@H]2CCCN2[C@H](C(=O)NC(C)(C)C)[C@H](C)NC1=O [Compound 220]
ELISA Assay Ratio b1/b7: 18.2 | IC50: 96 nM

CC(C)C[C@@H]1NC(=O)C[C@H](CCCCN)NC(=O)[C@H](Cc2cccc(I)c2)NC(=O)[C@@H]2CCCN2[C@H](C(=O)NC(C)(C)C)[C@H](C)NC(=O)[C@H]([C@@H](C)O)NC(=O)[C@H](CC(=O)O)NC1=O [Compound 255]
IC50: 43 nM

CC(C)C[C@@H]1NC(=O)C[C@H](CCCCN)NC(=O)[C@H](Cc2ccccc2)N(C)C(=O)[C@@H]2CCCN2[C@H](C(=O)NC(C)(C)C)[C@H](C)NC(=O)[C@H]([C@@H](C)O)NC(=O)[C@H](CC(=O)O)NC1=O [Compound 264]
IC50: 117 nM

CC[C@H](C)[C@@H]1NC(=O)[C@H](CC(=O)O)NC(=O)[C@H](CC(C)C)NC(=O)[C@H](Cc2ccc(O)cc2)NC(=O)[C@@H]2CCCN2[C@H](C(=O)NC(C)(C)C)[C@H](C)NC1=O [Compound 53]
IC50: 182 nM

CC(C)C[C@@H]1NC(=O)C[C@H](CCCCN)NC(=O)[C@H](Cc2ccc(-c3ccccc3OC(F)(F)F)cc2)NC(=O)[C@@H]2CCCN2[C@H](C(=O)NC(C)(C)C)[C@H](C)NC(=O)[C@H]([C@@H](C)O)NC(=O)[C@H](CC(=O)O)NC1=O [Compound 262]
IC50: 80 nM

CC(C)C[C@@H]1NC(=O)[C@H]2CCCCN2C(=O)[C@H](Cc2ccccc2-c2ccccc2)NC(=O)[C@@H]2CCCN2[C@H](C(=O)NC(C)(C)C)[C@H](C)NC(=O)[C@H]([C@@H](C)O)NC(=O)[C@H](CC(=O)O)NC1=O [Compound 134]
ELISA Assay Ratio b1/b7: 7.6 | IC50: 23 nM

CC(C)C[C@@H]1NC(=O)CN(C)C(=O)[C@H](Cc2csc(-c3cccnc3)n2)NC(=O)[C@@H]2CCCN2[C@H](C(=O)NC(C)(C)C)[C@H](C)NC(=O)[C@H]([C@@H](C)O)NC(=O)[C@H](CC(=O)O)NC1=O [Compound 181]
ELISA Assay Ratio b1/b7: 12.6
